In patent US10138233B2, “Imidazole compounds as modulators of FSHR and uses thereof” (Merck Patent GmbH, priority 2013, dated 2018):

Biological target: T1, FSHR (Homo sapiens, UniProt P23945)
T1 construct: expressed in transfected cells; host or cells: CHO cells, clone Cho-FSHR-LUC-1-1-43
T1 sequence (P23945 18-695): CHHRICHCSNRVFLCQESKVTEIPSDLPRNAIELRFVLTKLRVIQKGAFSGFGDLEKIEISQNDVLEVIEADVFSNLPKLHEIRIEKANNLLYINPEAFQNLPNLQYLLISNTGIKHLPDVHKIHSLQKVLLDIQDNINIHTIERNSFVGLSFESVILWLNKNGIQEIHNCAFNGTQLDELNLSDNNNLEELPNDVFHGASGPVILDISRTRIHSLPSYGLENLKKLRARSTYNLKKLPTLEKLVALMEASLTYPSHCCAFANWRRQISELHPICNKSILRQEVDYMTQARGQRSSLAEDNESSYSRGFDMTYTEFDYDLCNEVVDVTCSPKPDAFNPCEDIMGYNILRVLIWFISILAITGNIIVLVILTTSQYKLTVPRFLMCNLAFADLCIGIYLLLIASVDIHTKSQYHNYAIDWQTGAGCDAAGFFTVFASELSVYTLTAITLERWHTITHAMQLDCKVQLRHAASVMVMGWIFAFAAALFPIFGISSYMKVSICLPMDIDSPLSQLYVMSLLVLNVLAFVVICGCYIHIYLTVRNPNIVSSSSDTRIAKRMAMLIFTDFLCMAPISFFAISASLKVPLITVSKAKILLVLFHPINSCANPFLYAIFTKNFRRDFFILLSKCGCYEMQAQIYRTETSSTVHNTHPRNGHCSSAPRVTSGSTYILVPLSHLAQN
Assay: EC50 of cyclic AMP production in CHO FSHR cells + EC20 FSH (Assay A)
Assay type: cell-based
Conditions: CHO-FSHR-LUC cells, in presence of EC20 FSH, cAMP HTRF, 1 h 37° C.
Protocol: EC50 of cyclic AMP production in CHO FSHR cells+EC20 FSH (Assay A)
2500 Cho-FSHR-LUC-1-1-43 cells were plated per well in 5 μl of phenol red free DMEM/F12+1% FBS. […] Cells were assayed by adding 100 μl of 2×EC20 FSH/IBMX in DMEM/F12+0.1% BSA) by Multidrop to 2 μl of test compound stamped in 384 well plates (compounds are diluted 1:50). […] The compound plate map was as follows: Column 1: 2 μl of DMSO; Column 2: 2 μl of DMSO; Columns 3-12 and 13-24: 2 μl of test compound, diluted 1:4 in 100% DMSO, or 2 μl of FSH, diluted 1:4 in DMEM/F12+0.1% BSA. The starting concentration for FSH was 50 nM (final concentration was 0.5 nM). […] 10 μl of mixed HTRF (CisBio #62AM4PEC) reagents were added per well and incubated at room temperature for 1 h. The plates were read on Envision using the cAMP HTRF—low volume 384 well protocol. […] Values given in percent (%) indicate the percental effect (response) at a certain concentration of agonist relative to the maximum response of the FSH standard.

Question: For COc1cc2c(cc1OC)-n1c(-c3cccs3)nc(C(=O)N(C)C(C)(C)C)c1CC2 [Compound 1, 7,8-Dimethoxy-1-thiophen-2-yl-4,5-dihydro-imidazo[1,5-a]quinoline-3-carboxylic acid tert-butyl-methyl-amide], which EC50 is on record?
Answer: 100 to 1000 nM

Question: With COc1cc2c(cc1OC)-n1c(-c3ccsc3)nc(C(=O)N(C)C(C)(C)C)c1CC2 [Compound 2, 7,8-Dimethoxy-1-thiophen-3-yl-4,5-dihydro-imidazo[1,5-a]quinoline-3-carboxylic acid tert-butyl-methyl-amide] as the compound, how does the EC50 read?
Answer: 100 to 1000 nM

Question: For COc1cc2c(cc1OC(C)C)-n1c(Br)nc(C(=O)N3CCCN(C(=O)C4CCC4)CC3)c1CC2 [Compound 3], which EC50 is on record?
Answer: < 100 nM

Question: How did the EC50 turn out when COc1cc2c(cc1OC(C)C)-n1c(Br)nc(C(=O)N(C)C(C)(C)C)c1CC2 [Compound 4, 1-Bromo-8-isopropoxy-7-methoxy-4,5-dihydro-imidazo[1,5-a]quinoline-3-carboxylic acid tert-butyl-methyl-amide] was run?
Answer: > 5000 nM

Question: For COc1cc2c(cc1OC(C)C)-n1c(-c3ccsc3)nc(C(=O)N(C)C(C)(C)C)c1CC2 [Compound 5], which EC50 is on record?
Answer: 100 to 1000 nM

Question: With COc1cc2c(cc1-c1cccnc1)-n1c(-c3ccsc3)nc(C(=O)N(C)C(C)(C)C)c1CC2 [Compound 8, 7-Methoxy-8-pyridin-3-yl-1-thiophen-3-yl-4,5-dihydro-imidazo[1,5-a]quinoline-3-carboxylic acid tert-butyl-methyl-amide] as the compound, how does the EC50 read?
Answer: < 100 nM

Question: Which EC50 does the source give for COc1cc2c(cc1OC(C)C)-n1c(-c3cncs3)nc(C(=O)N3CCCN(C(=O)N4CCC4)CC3)c1CC2 [Compound 9] here?
Answer: 1000 to 5000 nM

Question: For COc1cc2c(cc1OC(C)C)-n1c(-c3ccsc3)nc(C(=O)N3CCCN(C(=O)N4CCC4)CC3)c1CC2 [Compound 10], which EC50 is on record?
Answer: 100 to 1000 nM

Question: With COc1cc2c(cc1CC(C)C)-n1c(-c3cc[nH]n3)nc(C(=O)N(C)C(C)(C)C)c1CC2 [Compound 12, 8-Isobutyl-7-methoxy-1-(1H-pyrazol-3-yl)-4,5-dihydro-imidazo[1,5-a]quinoline-3-carboxylic acid tert-butyl-methyl-amide] as the compound, how does the EC50 read?
Answer: > 5000 nM

Question: With COc1cc2c(cc1OC(C)C)-n1c(-c3ccncc3)nc(C(=O)N(C)C(C)(C)C)c1CC2 [Compound 13] as the compound, how does the EC50 read?
Answer: > 5000 nM

Question: COc1cc2c(cc1OC(C)C)-n1c(-c3ccc(F)s3)nc(C(=O)N(C)C(C)(C)C)c1CC2 [Compound 14] was tested. Which EC50 did it give?
Answer: < 100 nM

Question: With COc1cc2c(cc1OC(C)C)-n1c(-c3ccn(C)c3)nc(C(=O)N(C)C(C)(C)C)c1CC2 [Compound 15] as the compound, how does the EC50 read?
Answer: 100 to 1000 nM

Question: With COc1cc2c(cc1OC(C)C)-n1c(-c3cnc(C)s3)nc(C(=O)N(C)C(C)(C)C)c1CC2 [Compound 16] as the compound, how does the EC50 read?
Answer: 1000 to 5000 nM

Question: For COc1cc2c(cc1CC(C)C)-n1c(-c3cccs3)nc(C(=O)N(C)C(C)(C)C)c1CC2 [Compound 17, 8-Isobutyl-7-methoxy-1-thiophen-2-yl-4,5-dihydro-imidazo[1,5-a]quinoline-3-carboxylic acid tert-butyl-methyl-amide], which EC50 is on record?
Answer: < 100 nM

Question: With COc1cc2c(cc1CC(C)C)-n1c(-c3ccsc3)nc(C(=O)N(C)C(C)(C)C)c1CC2 [Compound 18, 8-Isobutyl-7-methoxy-1-thiophen-3-yl-4,5-dihydro-imidazo[1,5-a]quinoline-3-carboxylic acid tert-butyl-methyl-amide] as the compound, how does the EC50 read?
Answer: 100 to 1000 nM

Question: Which EC50 does the source give for COc1cc2c(cc1CC(C)C)-n1c(-c3cccs3)nc(C(=O)N3CCOCC3(C)C)c1CC2 [Compound 20, (3,3-Dimethyl-morpholin-4-yl)-(8-isobutyl-7-methoxy-1-thiophen-2-yl-4,5-dihydro-imidazo[1,5-a]quinolin-3-yl)-methanone] here?
Answer: < 100 nM

Question: COc1cc2c(cc1CC(C)C)-n1c(C3CCN(C)CC3)nc(C(=O)N(C)C(C)(C)C)c1CC2 [Compound 22, N-(tert-butyl)-8-isobutyl-7-methoxy-N-methyl-1-(1-methylpiperidin-4-yl)-4,5-dihydroimidazo[1,5-a]quinoline-3-carboxamide] was tested. Which EC50 did it give?
Answer: 1000 to 5000 nM

Question: Which EC50 does the source give for COc1cc2c(cc1CC(C)C)-n1c(-c3cn[nH]c3)nc(C(=O)N(C)C(C)(C)C)c1CC2 [Compound 23, 8-Isobutyl-7-methoxy-1-(1H-pyrazol-4-yl)-4,5-dihydro-imidazo[1,5-a]quinoline-3-carboxylic acid tert-butyl-methyl-amide] here?
Answer: 1000 to 5000 nM

Question: For COc1cc2c(cc1CC(C)C)-n1c(-c3cccs3)nc(C(=O)NC(C)(C)CO)c1CC2 [Compound 24, 8-Isobutyl-7-methoxy-1-thiophen-2-yl-4,5-dihydro-imidazo[1,5-a]quinoline-3-carboxylic acid (2-hydroxy-1,1-dimethyl-ethyl)-amide], which EC50 is on record?
Answer: 1000 to 5000 nM

Question: COc1cc2c(cc1CC(C)C)-n1c(-c3cccn3C(=O)OC(C)(C)C)nc(C(=O)N3CCOCC3(C)C)c1CC2 [Compound 26, 2-[3-(3,3-Dimethyl-morpholine-4-carbonyl)-8-isobutyl-7-methoxy-4,5-dihydro-imidazo[1,5-a]quinolin-1-yl]-pyrrole-1-carboxylic acid tert-butyl ester] was tested. Which EC50 did it give?
Answer: 1000 to 5000 nM

Question: For COc1cc2c(cc1CC(C)C)-n1c(-c3cn[nH]c3C)nc(C(=O)N3CCOCC3(C)C)c1CC2 [Compound 27, (3,3-Dimethyl-morpholin-4-yl)-[8-isobutyl-7-methoxy-1-(5-methyl-1H-pyrazol-4-yl)-4,5-dihydro-imidazo[1,5-a]quinolin-3-yl]-methanone], which EC50 is on record?
Answer: 1000 to 5000 nM

Question: How did the EC50 turn out when COc1cc2c(cc1CC(C)C)-n1c(-c3cc[nH]c3)nc(C(=O)N3CCOCC3(C)C)c1CC2 [Compound 28, (3,3-Dimethyl-morpholin-4-yl)-[8-isobutyl-7-methoxy-1-(1H-pyrrol-3-yl)-4,5-dihydro-imidazo[1,5-a]quinolin-3-yl]-methanone] was run?
Answer: 100 to 1000 nM

Question: How did the EC50 turn out when COc1cc2c(cc1CC(C)C)-n1c(-c3ccn(C)n3)nc(C(=O)N3CCOCC3(C)C)c1CC2 [Compound 29, (3,3-Dimethyl-morpholin-4-yl)-[8-isobutyl-7-methoxy-1-(1-methyl-1H-pyrazol-3-yl)-4,5-dihydro-imidazo[1,5-a]quinolin-3-yl]-methanone] was run?
Answer: 100 to 1000 nM

Question: With [2H]C([2H])([2H])OC1CCN(C(=O)c2nc(-c3cccs3)n3c2CCc2cc(OC)c(CC(C)C)cc2-3)C1 (stereo not shown) [Compound 33, (8-Isobutyl-7-methoxy-1-thiophen-2-yl-4,5-dihydro-imidazo[1,5-a]quinolin-3-yl)-(3-methoxy-d3-pyrrolidin-1-yl)-methanone] as the compound, how does the EC50 read?
Answer: > 5000 nM

Question: For COc1cc2c(cc1OC(C)C)-n1c(-c3cnn(C)c3C)nc(C(=O)N3CCOCC3(C)C)c1CC2 [Compound 35], which EC50 is on record?
Answer: > 5000 nM

Question: For COc1cc2c(cc1OC(C)C)-n1c(-c3cn(C)nc3C)nc(C(=O)N3CCOCC3(C)C)c1CC2 [Compound 36], which EC50 is on record?
Answer: > 5000 nM

Question: How did the EC50 turn out when COc1cc2c(cc1OC(C)C)-n1c(-c3c(C)nn(C)c3C)nc(C(=O)N3CCOCC3(C)C)c1CC2 [Compound 37] was run?
Answer: > 5000 nM

Question: For COc1cc2c(cc1OC(C)C)-n1c(-c3cccnc3)nc(C(=O)N3CCOCC3(C)C)c1CC2 [Compound 39], which EC50 is on record?
Answer: 1000 to 5000 nM

Question: With COc1cc2c(cc1OC(C)C)-n1c(-c3ccnn3C)nc(C(=O)N3CCOCC3(C)C)c1CC2 [Compound 40] as the compound, how does the EC50 read?
Answer: 1000 to 5000 nM

Question: With COc1cc2c(cc1OC(C)C)-n1c(-c3cc(C)nn3C)nc(C(=O)N3CCOCC3(C)C)c1CC2 [Compound 42] as the compound, how does the EC50 read?
Answer: 100 to 1000 nM

Question: COc1cc2c(cc1OC(C)C)-n1c(-c3ccn(C)n3)nc(C(=O)N3CCOCC3(C)C)c1CC2 [Compound 43] was tested. Which EC50 did it give?
Answer: > 5000 nM

Question: With COc1cc2c(cc1OC(C)C)-n1c(-c3cncnc3)nc(C(=O)N3CCOCC3(C)C)c1CC2 [Compound 45] as the compound, how does the EC50 read?
Answer: 100 to 1000 nM

Question: For COc1cc2c(cc1OC(C)C)-n1c(-c3cn(C)cn3)nc(C(=O)N3CCOCC3(C)C)c1CC2 [Compound 46], which EC50 is on record?
Answer: > 5000 nM

Question: Which EC50 does the source give for COc1cc2c(cc1OC(C)C)-n1c(-c3cncn3C)nc(C(=O)N3CCOCC3(C)C)c1CC2 [Compound 47] here?
Answer: > 5000 nM

Question: How did the EC50 turn out when COc1cc2c(cc1CC(C)C)-n1c(-c3cccs3)nc(C(=O)NCCNC(C)=O)c1CC2 [Compound 48, 8-Isobutyl-7-methoxy-1-thiophen-2-yl-4,5-dihydro-imidazo[1,5-a]quinoline-3-carboxylic acid (2-acetylamino-ethyl)-amide] was run?
Answer: 1000 to 5000 nM

Question: How did the EC50 turn out when COc1cc2c(cc1OC(C)C)-n1c(C3=CCCCO3)nc(C(=O)N3CCOCC3(C)C)c1CC2 [Compound 50] was run?
Answer: 100 to 1000 nM

Question: COC/C=C/c1nc(C(=O)N2CCOCC2(C)C)c2n1-c1cc(OC(C)C)c(OC)cc1CC2 [Compound 51] was tested. Which EC50 did it give?
Answer: 1000 to 5000 nM
